Measurements from patent publication US10383859B2, “Benzo[d]thiazole derivative or salt thereof, and pharmaceutical composition including same” (Yuhan Corporation, priority 2016, dated 2019).
pIC50: −log10 of the molar value.

Test system: A549 cells
Test: Cell migration assay (24-well transwell, laminin)
Assay type: cell-based, human
Conditions: Homo sapiens, A549, 6 h, laminin 10 μg/mL in lower well, test compounds 0.39˜100 μM, migrated cells counted, read-out: Inhibitory activity against cell migration
Summary of the method: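 Serum-free RPMI1640 transwell (8.0 μm pore) with laminin (10 μg/mL) in lower well; A549 cells (1×10^6 cells/mL) and compounds (0.39–100 μM) in both chambers, 6 h at 37 °C. Hematoxylin-stained cells on membrane underside counted at three fields (×20); IC50 by non-linear regression.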

| pIC50 | Compound |
| --- | --- |
| < 5.00 | COc1ccc(CCN(Cc2ccc(C(=O)O)cc2)c2nc3ccc(C)cc3s2)cc1 [Example 97, 4-({[2-(4-methoxyphenyl)ethyl](6-methyl-benzo[d]thiazol-2-yl)amino}methyl)benzoic acid] |
| < 5.00 | COc1cc(C)c(CCN(c2nc3cccc(F)c3s2)C(C)c2ccc(C(=O)O)cc2)cc1C(C)C (stereo not shown) [Example 62, 4-{1-[(7-fluorobenzo[d]thiazol-2-yl){2-[4-methoxy-2-methyl-5-(propan-2-yl)phenyl]ethyl}amino]ethyl}benzoic acid] |
| < 5.00 | CCOc1ccc(CCN(Cc2ccc(C(=O)O)cc2)c2nc3cccc(F)c3s2)cc1OC [Example 25, 4-({[2-(4-ethoxy-3-methoxyphenyl)ethyl](7-fluorobenzo[d]thiazol-2-yl)amino}methyl)benzoic acid] |
| < 5.00 | O=C(O)c1ccc(CN(CCc2cccc(Cl)c2)c2nc3cccc(F)c3s2)cc1 [Example 5, 4-{[[2-(3-chlorophenyl)ethyl](7-fluorobenzo[d]thiazol-2-yl)amino]methyl}benzoic acid] |
| < 5.00 | COc1ccc(CCN(Cc2ccc(C(=O)O)cc2)c2nc3cc(C)ccc3s2)cc1 [Example 98, 4-({[2-(4-methoxyphenyl)ethyl](5-methyl-benzo[d]thiazol-2-yl)amino}methyl)benzoic acid] |
| < 5.00 | COc1ccc(CCN(c2nc3cccc(F)c3s2)C(C)c2ccc(C(=O)O)cc2)cc1F (stereo not shown) [Example 54, 4-(1-{(7-fluorobenzo[d]thiazol-2-yl)[2-(3-fluoro-4-methoxyphenyl)ethyl]amino}ethyl)benzoic acid] |
| < 5.00 | O=C(O)c1ccc(CN(CCc2ccc(F)cc2F)c2nc3cccc(F)c3s2)cc1 [Example 39, 4-({[2-(2,4-difluorophenyl)ethyl](7-fluorobenzo[d]thiazol-2-yl)amino}methyl)benzoic acid] |
| > 6.00 | COc1ccc(CCN(Cc2ccc(C(=O)O)cc2)c2nc3cccc(F)c3s2)c(F)c1 [Example 26, 4-({(7-fluorobenzo[d]thiazol-2-yl)[2-(2-fluoro-4-methoxyphenyl)ethyl]amino}methyl)benzoic acid] |
| > 6.00 | Cc1ccc(CCN(Cc2ccc(C(=O)O)cc2)c2nc3cccc(F)c3s2)cc1 [Example 6, 4-(((7-fluorobenzo[d]thiazol-2-yl)(4-methylphenylethyl)amino)methyl)benzoic acid] |
| < 5.00 | COc1ccc(CCN(c2nc3cccc(C)c3s2)C(C)c2ccc(C(=O)O)cc2)cc1 (stereo not shown) [Example 110, 4-(1-{[2-(4-methoxyphenyl)ethyl](7-methyl-benzo[d]thiazol-2-yl)amino}ethyl)benzoic acid] |
| < 5.00 | CCC(c1ccc(C(=O)O)cc1)N(CCc1ccc(OC)c(C)c1C)c1nc2cccc(F)c2s1 (stereo not shown) [Example 71, 4-(1-{(7-fluorobenzo[d]thiazol-2-yl)[2-(4-methoxy-2,3-dimethylphenyl)ethyl]amino}propyl)benzoic acid] |
| > 6.00 | COc1ccc(CCN(Cc2ccc(C(=O)O)cc2)c2nc3ccc(F)c(F)c3s2)cc1 [Example 90, 4-({(6,7-difluorobenzo[d]thiazol-2-yl)-[2-(4-methoxyphenyl)ethyl]amino}methyl)benzoic acid] |
| < 5.00 | O=C(O)c1ccc(CN(CCc2ccc(OCC3CCCCC3)cc2)c2nc3cccc(F)c3s2)cc1 [Example 23, 4-{[[2-(4-cyclohexylmethoxyphenyl)ethyl]-(7-fluorobenzo[d]thiazol-2-yl)amino]methyl}benzoic acid] |
| 5.00 to 6.00 | CC(C)Oc1ccc(CCN(Cc2ccc(C(=O)O)cc2)c2nc3cccc(F)c3s2)cc1 [Example 11, 4-({(7-fluorobenzo[d]thiazol-2-yl)[2-(4-isopropoxyphenyl)ethyl]amino}methyl)benzoic acid] |
| > 6.00 | COc1cc(F)c(CCN(Cc2ccc(C(=O)O)cc2)c2nc3cccc(F)c3s2)c(F)c1 [Example 51, 4-({[2-(2,6-difluoro-4-methoxyphenyl)ethyl](7-fluorobenzo[d]thiazol-2-yl)amino}methyl)benzoic acid] |
| < 5.00 | COc1ccc(CCN(Cc2ccc(C(=O)O)cc2)c2nc3ccc(Br)cc3s2)cc1 [Example 115, 4-({(6-bromo-benzo[d]thiazol-2-yl)[2-(4-methoxyphenyl)ethyl]amino}methyl)benzoic acid] |
| > 6.00 | COc1ccc(CCN(Cc2ccc(C(=O)O)cc2)c2nc3cc(F)cc(F)c3s2)cc1 [Example 93, 4-({(5,7-difluorobenzo[d]thiazol-2-yl)[2-(4-methoxyphenyl)ethyl]amino}methyl)benzoic acid] |
| > 6.00 | COc1cc(F)c(CCN(c2nc3cccc(F)c3s2)C(C)c2ccc(C(=O)O)cc2)c(F)c1 (stereo not shown) [Example 67, 4-(1-{[2-(2,6-difluoro-4-methoxyphenyl)ethyl](7-fluorobenzo[d]thiazol-2-yl)amino}ethyl)benzoic acid] |
| > 6.00 | COc1ccc(CCN(c2nc3cccc(Cl)c3s2)C(C)c2ccc(C(=O)O)cc2)cc1 (stereo not shown) [Example 109, 4-(1-{(7-chloro-benzo[d]thiazol-2-yl)[2-(4-methoxyphenyl)ethyl]amino}ethyl)benzoic acid] |
| > 6.00 | COc1ccc(CCN(c2nc3cc(C(F)(F)F)ccc3s2)C(C)c2ccc(C(=O)O)cc2)cc1 (stereo not shown) [Example 124, 4-(1-{[2-(4-methoxyphenyl)ethyl][5-(trifluoromethyl)benzo[d]thiazol-2-yl]amino}ethyl)benzoic acid] |
| < 5.00 | CCC(c1ccc(C(=O)O)cc1)N(CCc1c(F)cc(OC)cc1F)c1nc2cccc(F)c2s1 (stereo not shown) [Example 75, 4-(1-{[2-(2,6-difluoro-4-methoxyphenyl)ethyl](7-fluorobenzo[d]thiazol-2-yl)amino}propyl)benzoic acid] |
| 5.00 to 6.00 | CCNc1ccc(CCN(Cc2ccc(C(=O)O)cc2)c2nc3cccc(F)c3s2)cc1 [Example 31, 4-{[[2-(4-ethylaminophenyl)ethyl](7-fluorobenzo[d]thiazol-2-yl)amino]methyl}benzoic acid] |
| > 6.00 | COc1ccc(CCN(c2nc3cccc(F)c3s2)C(C)c2ccc(C(=O)O)cc2)cc1C (stereo not shown) [Example 65, 4-(1-{(7-fluorobenzo[d]thiazol-2-yl)[2-(4-methoxy-3-methylphenyl)ethyl]amino}ethyl)benzoic acid] |
| < 5.00 | O=C(O)c1ccc(CN(CCc2cccc(F)c2)c2nc3cccc(F)c3s2)cc1 [Example 3, 4-({(7-fluorobenzo[d]thiazol-2-yl)[2-(3-fluorophenyl)ethyl]amino}methyl)benzoic acid] |
| < 5.00 | COc1ccc(CCN(Cc2ccc(C(=O)O)cc2)c2nc3ccc(C(F)(F)F)c(F)c3s2)cc1 [Example 121, 4-({[7-fluoro-6-(trifluoromethyl)benzo[d]thiazol-2-yl][2-(4-methoxyphenyl)ethyl]amino}methyl)benzoic acid] |
